Data taken from patent publication US7612096B2, “Methods for treatment, modification and management of radiculopathy using 1-oxo-2-(2,6-dioxopiperidin-3yl)-4-aminoisoindoline” (Celgene Corporation, priority 2004, dated 2009).

Columns and labels:
IL10 production = assay: LPS-stimulated production of IL10 by PBMC; format: cell-based
TNF-α production [1] = assay: Inhibition of TNF-α production following LPS-stimulation of human PBMC; format: cell-based; conditions: for IC50: human PBMC, LPS-stimulated, read-out: IC50 for inhibiting production of TNF-α following LPS-stimulation of PBMC
From the text: (§1) Inhibitions of TNF-α production following LPS-stimulation of human PBMC and human whole blood by 3-(4-amino-1-oxo-1,3-dihydro-isoindol-2-yl)-piperidine-2,6-dione, 4-(amino)-2-(2,6-dioxo-(3-piperidyl))-isoindoline-1,3-dione and thalidomide were investigated in vitro.

IL1β production = assay: LPS-stimulated production of IL1β by PBMC; format: cell-based
Beagle dogs = assay: Cardiovascular and respiratory function in anesthetized dogs; format: in vivo, dog; conditions: for cardiovascular and respiratory changes compared to the vehicle control group: anesthetized Beagle dogs, 2, 10 and 20 mg/kg, infusion through the jugular vein, all doses; for duration of the arterial blood pressure increase / change in arterial blood pressure / deviations in femoral blood flow, respiratory parameters, and Qtc interval: anesthetized Beagle dogs; for duration of the arterial blood pressure increase / change in arterial blood pressure: low dose; for change in arterial blood pressure: i.v. infusion, statistically significant, not seen at higher doses; for deviations in femoral blood flow, respiratory parameters, and Qtc interval: common to both control and treated groups
From the text: The effects of 3-(4-amino-1-oxo-1,3-dihydro-isoindol-2-yl)-piperidine-2,6-dione and 4-(amino)-2-(2,6-dioxo-(3-piperidyl))-isoindoline-1,3-dione on cardiovascular and respiratory function were investigated in anesthetized dogs. Two groups of Beagle dogs (2/sex/group) were used. One group received three doses of vehicle only and the other receives three ascending doses of 3-(4-amino-1-oxo-1,3-dihydro-isoindol-2-yl)-piperidine-2,6-dione or 4-(amino)-2-(2,6-dioxo-(3-piperidyl))-isoindoline-1,3-dione (2, 10, and 20 mg/kg). In all cases, doses of 3-(4-amino-1-oxo-1,3-dihydro-isoindol-2-yl)-piperidine-2,6-dione, 4-(amino)-2-(2,6-dioxo-(3-piperidyl))-isoindoline-1,3-dione or vehicle were successively administered via infusion through the jugular vein separated by intervals of at least 30 minutes.

IL6 production = assay: LPS-stimulated production of IL6 by PBMC; format: cell-based
CRPS patients = assay: Clinical study in patients with upper extremity CRPS; format: in vivo, human; conditions: 10 mg continuous oral daily dose
Experimental: Immunomodulatory compounds such as 4-(amino)-2-(2,6-dioxo(3-piperidyl))-isoindoline-1,3-dione and 3-(4-amino-1-oxo-1,3-dihydro-isoindol-2-yl)-piperidine-2,6-dione are administered in an amount of 0.1 to 25 mg per day to patients with pain syndromes for three to six months. A baseline evaluation is performed for the effect of the drug treatment on pain intensity, impact of pain on activities of daily living, and consumption of other pain medications.
In a specific embodiment, clinical studies are performed in pain patients who have upper extremity CRPS that has not responded to conventional physical therapy and has been present for at least one year. In the early course of their diseases, patients have clear evidence of autonomic dysfunction with formal autonomic testing (Quantitative sudomotor axon reflex test (QSART), resting sweat output, and thermography). […] Responses are assessed using standard pain scales, e.g., Numeric Pain Scale Assessment (VAS) for pain, quality of life using the McGill Index and objective signs in clinical examination such as a visible reduction of swelling, sweating, discolorations in skin color, temperature changes, changes in skin, hair and nail growth, and fine motor movements. […]

TNF-α production [2] = assay: Inhibition of TNF-α production following LPS-stimulation of human whole blood; format: cell-based; conditions: LPS-stimulated, read-out: IC50 for inhibiting production of TNF-α following LPS-stimulation of human whole blood
From the text: as §1

| SMILES | effect on production of the anti-inflammatory cytokine IL10 (IL10 production) | effect on LPS-stimulated production of TNF-α by PBMC (TNF-α production [1]) | IC50 (TNF-α production [1]) [nM] | effect on LPS-stimulated production of IL1β by PBMC (IL1β production) | cardiovascular and respiratory changes compared to the vehicle control group (Beagle dogs) | duration of the arterial blood pressure increase (Beagle dogs) | change in arterial blood pressure (Beagle dogs) | deviations in femoral blood flow, respiratory parameters, and Qtc interval (Beagle dogs) | effect on LPS-stimulated production of IL6 by PBMC (IL6 production) | tolerability (CRPS patients) | IC50 (TNF-α production [2]) [nM] |
| --- | --- | --- | --- | --- | --- | --- | --- | --- | --- | --- | --- |
| Nc1cccc2c1CN(C1CCC(=O)NC1=O)C2=O (stereo not drawn) [3-(4-amino-1-oxo-1,3-dihydro-isoindol-2-yl)-piperidine-2,6-dione] | increased production | dose-dependent inhibition | ~100 | dose-dependent inhibition | minimal | approximately 15 minutes | small increase | not considered treatment-related | dose-dependent inhibition | well-tolerated | ~480 |
| Nc1cccc2c1C(=O)N(C1CCC(=O)NC1=O)C2=O (stereo not drawn) [4-(Amino)-2-(2,6-dioxo(3-piperidyl))-isoindoline-1,3-dione] | increased production | dose-dependent inhibition | ~24 | dose-dependent inhibition | minimal | approximately 15 minutes | small increase | not considered treatment-related | dose-dependent inhibition | – | ~25 |
